Tests used:
Murine L929 cells = assay: Necroptosis inhibition assay in L929 cells (mTNFα + zVAD, Sytox Green); format: cell-based; conditions: Mus musculus, 10 ng/ml mTNFα and 20 μM zVAD, 6 hours, Sytox Green fluorescence
Method: (§1) Murine L929 cells (ATCC-CCL-1) were seeded at 10,000 cells/well in a 96-well plate. Cells were treated 48 hours after seeding with 10 ng/ml mTNFα (R&D Systems) and 20 μM zVAD (ChemShuttle) in the presence of different concentrations of compounds ranging from […] to 0.01 μM. Cells treated with 0.1% DMSO or cells treated with TNFα+zVAD were used as control and vehicle respectively.
Assay plates containing cells were incubated for 6 hours at 37° C. and 5% CO2. Necroptosis was assessed using Sytox Green Nucleic Acid Stain (Invitrogen). After incubation, 100 μL of Sytox dye at 2 μM (2×) diluted in HBSS 1× was added in each well and incubated for 15 min at room temperature. Fluorescence (500ex/530em) was recorded using the Cytation 5 microplate reader (Biotek).
(§2) Percentage of necroptosis inhibition was calculated as the percent compared to control and vehicle conditions which correspond to 100% and 0% respectively. The half-maximum necroptosis inhibition (IC50) levels were calculated using GraphPad Prism software and are shown in Table 3 (NT represents compound not tested).

Human HT-29 cells = assay: Necroptosis inhibition assay in HT-29 cells (hTNFα + zVAD + SMAC mimetic, Sytox Green/Hoechst); format: cell-based; conditions: 10 ng/ml hTNFα, 20 μM zVAD and 100 nM SMAC mimetic, 6 hours, Sytox/Hoechst positive cells, read-out: HT29 necroptosis inhibition IC50
Method: as §1, with “Human HT-29” for “Murine L929”, “(ATCC-HTB-38)” for “(ATCC-CCL-1)”, “hTNFα” for “mTNFα”, “Systems),” for “Systems) and”, “(ChemShuttle) and 100 nM SMAC mimetic (MedChem Express)” for “(ChemShuttle)”, “TNFα+zVAD+SMAC mimetic” for “TNFα+zVAD”
Assay plates containing cells were incubated for 6 hours at 37° C. and 5% CO2. Necroptosis was assessed using Sytox Green Nucleic Acid Stain (Invitrogen) and Hoechst staining. After incubation, 100 μL of Sytox dye at 2 μM (2×) diluted in HBSS 1× was added to each well. At the same time, Hoechst stain is added to a final concentration of 10 μM and incubated for 15 min at room temperature. Images were taken for Sytox and Hoechst using the Cytation 5 microplate reader with DAPI and GFP filter cubes (Biotek). Sytox and Hoechst positive cells were counted with CellProfiler software.
as §2

| SMILES | IC50 (Murine L929 cells) | IC50 (Human HT-29 cells) |
| --- | --- | --- |
| Fc1cc(CN2CC3CNCC3C2)ccc1-c1ccc2nccc(Nc3ccc4scnc4c3)c2c1 (centres unmarked) [Compound 299, N-(6-(2-fluoro-4-((hexahydropyrrolo[3,4-c]pyrrol-2(1H)-yl)methyl)phenyl)quinolin-4-yl)benzo[d]thiazol-5-amine] | 0.987 µM | 0.462 µM |
| Fc1cc(CN2CC3CNCC3C2)ccc1-c1ccc2c(Nc3ccc4scnc4c3)ccnc2c1 (centres unmarked) [Compound 300, N-(7-(2-fluoro-4-((hexahydropyrrolo[3,4-c]pyrrol-2(1H)-yl)methyl)phenyl)quinolin-4-yl)benzo[d]thiazol-5-amine] | 0.461 µM | 0.721 µM |
| O=C(c1ccc(-c2ccc3c(Nc4ccc5scnc5c4)ccnc3c2)c(F)c1)N1C[C@@H]2C[C@H]1CN2 [Compound 301, (4-(4-(benzo[d]thiazol-5-ylamino)quinolin-7-yl)-3-fluorophenyl)((1S,4S)-2,5-diazabicyclo[2.2.1]heptan-2-yl)methanone] | 0.427 µM | 0.197 µM |
| O=C(c1ccc(-c2ccc3c(Nc4ccc5scnc5c4)ccnc3c2)cc1F)N1CC2CNCC2C1 (centres unmarked) [Compound 303, (4-(4-(benzo[d]thiazol-5-ylamino)quinolin-7-yl)-2-fluorophenyl)(hexahydropyrrolo[3,4-c]pyrrol-2(1H)-yl)methanone] | 0.977 µM | 0.69 µM |
| O=C(c1ccc(-c2ccc3nccc(Nc4ccc5scnc5c4)c3c2)cc1F)N1CC2CNCC2C1 (centres unmarked) [Compound 305, (4-(4-(benzo[d]thiazol-5-ylamino)quinolin-6-yl)-2-fluorophenyl)(hexahydropyrrolo[3,4-c]pyrrol-2(1H)-yl)methanone] | > 10 µM | 0.402 µM |
| O=C(c1ccc(-c2ccc3nccc(Nc4ccc5scnc5c4)c3c2)c(F)c1)N1C[C@H]2CNC[C@H]2C1 [Compound 306, (4-(4-(benzo[d]thiazol-5-ylamino)quinolin-6-yl)-3-fluorophenyl)((3aR,6aS)-hexahydropyrrolo[3,4-c]pyrrol-2(1H)-yl)methanone] | < 10 µM | 0.148 µM |
| O=C(c1ccc(-c2ccc3c(Nc4ccc5scnc5c4)ccnc3c2)c(F)c1)N1C[C@H]2CNC[C@H]2C1 [Compound 307, (4-(4-(benzo[d]thiazol-5-ylamino)quinolin-7-yl)-3-fluorophenyl)((3aR,6aS)-hexahydropyrrolo[3,4-c]pyrrol-2(1H)-yl)methanone] | 0.774 µM | 0.271 µM |
| NC1CN(C(=O)c2ccc(-c3ccc4c(Nc5ccc6scnc6c5)ccnc4c3)c(F)c2)C1 [Compound 310, (3-aminoazetidin-1-yl)(4-(4-(benzo[d]thiazol-5-ylamino)quinolin-7-yl)-3-fluorophenyl)methanone] | 0.663 µM | 0.294 µM |
| Fc1cc(OC2CC3(CNC3)C2)ccc1-c1ccc2nccc(Nc3ccc4scnc4c3)c2c1 [Compound 311, N-(6-(4-(2-azaspiro[3.3]heptan-6-yloxy)-2-fluorophenyl)quinolin-4-yl)benzo[d]thiazol-5-amine] | 1.03 µM | 0.732 µM |
| O=C(c1ccc(-c2ccc3c(Nc4ccc5scnc5c4)ccnc3c2)c(Cl)c1)N1CC2(CNC2)C1 [Compound 312, (4-(4-(benzo[d]thiazol-5-ylamino)quinolin-7-yl)-3-chlorophenyl)(2,6-diazaspiro[3.3]heptan-2-yl)methanone] | 0.668 µM | 1.56 µM |
| O=C(c1ccc(-c2ccc3c(Nc4ccc5scnc5c4)ccnc3c2)c(F)c1)N1[C@@H]2CNC[C@H]1C2 [Compound 313, (4-(4-(benzo[d]thiazol-5-ylamino)quinolin-7-yl)-3-fluorophenyl)((1R,5S)-3,6-diazabicyclo[3.1.1]heptan-6-yl)methanone] | 0.402 µM | 0.302 µM |
| CN1CCN(C(=O)c2ccc(-c3ccc4nccc(Nc5ccc6scnc6c5)c4c3)c(F)c2)CC1(C)C [Compound 315, (4-(4-(benzo[d]thiazol-5-ylamino)quinolin-6-yl)-3-fluorophenyl)(3,3,4-trimethylpiperazin-1-yl)methanone] | 0.396 µM | 0.12 µM |
| CS(=O)(=O)N1CC2(CN(C(=O)c3ccc(-c4ccc5nccc(Nc6ccc7scnc7c6)c5c4)c(F)c3)C2)C1 [Compound 316, (4-(4-(benzo[d]thiazol-5-ylamino)quinolin-6-yl)-3-fluorophenyl)(6-(methylsulfonyl)-2,6-diazaspiro[3.3]heptan-2-yl)methanone] | 1.58 µM | 0.269 µM |
| O=C(c1ccc(-c2ccc3nccc(Nc4ccc5scnc5c4)c3c2)c(F)c1)N1CCC(O)CC1 [Compound 317, (4-(4-(benzo[d]thiazol-5-ylamino)quinolin-6-yl)-3-fluorophenyl)(4-hydroxypiperidin-1-yl)methanone] | 0.707 µM | 0.169 µM |
| CC1(O)CCN(C(=O)c2ccc(-c3ccc4nccc(Nc5ccc6scnc6c5)c4c3)c(F)c2)CC1 [Compound 318, (4-(4-(benzo[d]thiazol-5-ylamino)quinolin-6-yl)-3-fluorophenyl)(4-hydroxy-4-methylpiperidin-1-yl)methanone] | 0.686 µM | 0.0537 µM |
| CC1(O)CCN(Cc2ccc(-c3ccc4nccc(Nc5ccc6scnc6c5)c4c3)c(F)c2)CC1 [Compound 319, 1-(4-(4-(benzo[d]thiazol-5-ylamino)quinolin-6-yl)-3-fluorobenzyl)-4-methylpiperidin-4-ol] | 0.301 µM | 0.284 µM |
| CNC(=O)CNCc1ccc(-c2ccc3nccc(Nc4ccc5scnc5c4)c3c2)c(F)c1 [Compound 320, 2-((4-(4-(benzo[d]thiazol-5-ylamino)quinolin-6-yl)-3-fluorobenzyl)amino)-N-methylacetamide] | 0.444 µM | 0.243 µM |
| COC1CCN(C(=O)c2ccc(-c3ccc4nccc(Nc5ccc6scnc6c5)c4c3)c(F)c2)CC1 [Compound 321, (4-(4-(benzo[d]thiazol-5-ylamino)quinolin-6-yl)-3-fluorophenyl)(4-methoxypiperidin-1-yl)methanone] | 0.238 µM | 0.109 µM |
| O=C(c1ccc(-c2cc3c(Nc4ccc5scnc5c4)ccnc3cc2F)c(F)c1)N1CCOCC1 [Compound 322, (4-(4-(benzo[d]thiazol-5-ylamino)-7-fluoroquinolin-6-yl)-3-fluorophenyl)(morpholino)methanone] | 0.175 µM | 0.111 µM |
| Fc1cc(CN2CC3(CNC3)C2)ccc1-c1ccc2c(Nc3ccc4scnc4c3)ccnc2c1 [Compound 323, N-(7-(4-((2,6-diazaspiro[3.3]heptan-2-yl)methyl)-2-fluorophenyl)quinolin-4-yl)benzo[d]thiazol-5-amine] | 0.454 µM | 0.296 µM |
| O=C(c1ccc(-c2ccc3nccc(Nc4ccc5scnc5c4)c3c2)c(F)c1)N1CC2(COC2)C1 [Compound 324, (4-(4-(benzo[d]thiazol-5-ylamino)quinolin-6-yl)-3-fluorophenyl)(2-oxa-6-azaspiro[3.3]heptan-6-yl)methanone] | 0.223 µM | 0.0765 µM |
| O=C(NC1CCOCC1)c1ccc(-c2ccc3nccc(Nc4ccc5scnc5c4)c3c2)c(F)c1 [Compound 325, 4-(4-(benzo[d]thiazol-5-ylamino)quinolin-6-yl)-3-fluoro-N-(tetrahydro-2H-pyran-4-yl)benzamide] | 0.665 µM | 0.0697 µM |
